Data taken from patent US20180194762A1 (Pharmacyclics LLC, priority 2017, published 2018).

How the values were obtained:
TEC = target: T1, TEC (Homo sapiens, UniProt P42680); assay: Inhibition of a panel of kinases (in vitro HotSpot kinase assay, 33P-ATP, 1 μM ATP); format: biochemical; conditions: for TEC/Btk: ratio of TEC IC50 to Btk IC50 (selectivity); for IC50: HotSpot kinase assay, 1 μM ATP
T1 sequence (P42680 1-631): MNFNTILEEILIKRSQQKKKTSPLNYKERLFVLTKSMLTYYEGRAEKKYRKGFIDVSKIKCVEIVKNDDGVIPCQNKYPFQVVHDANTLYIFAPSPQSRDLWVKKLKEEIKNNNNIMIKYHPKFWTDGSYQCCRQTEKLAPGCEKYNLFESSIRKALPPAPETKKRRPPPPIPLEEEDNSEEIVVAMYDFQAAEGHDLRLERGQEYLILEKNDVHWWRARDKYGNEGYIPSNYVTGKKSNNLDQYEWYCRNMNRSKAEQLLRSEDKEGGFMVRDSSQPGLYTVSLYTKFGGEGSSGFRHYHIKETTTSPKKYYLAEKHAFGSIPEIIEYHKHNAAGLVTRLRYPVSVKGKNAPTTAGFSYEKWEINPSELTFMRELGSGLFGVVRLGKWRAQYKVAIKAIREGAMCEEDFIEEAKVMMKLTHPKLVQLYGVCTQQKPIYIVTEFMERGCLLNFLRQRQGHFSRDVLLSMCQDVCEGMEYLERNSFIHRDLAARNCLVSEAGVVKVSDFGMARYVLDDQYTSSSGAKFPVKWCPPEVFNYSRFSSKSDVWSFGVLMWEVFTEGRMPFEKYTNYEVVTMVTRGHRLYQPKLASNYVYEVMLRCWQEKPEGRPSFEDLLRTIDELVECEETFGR
Procedure: Example 63: Inhibition of a Panel of Kinases The degree of inhibition of a panel of kinases is determined using the in vitro HotSpot kinase assay (purified enzymes, ^33P-ATP, an appropriate substrate and 1 μM ATP).

Btk = target: T2, Btk (Homo sapiens, UniProt Q06187); assay: Btk in vitro inhibitory activity (one of Method A TR-FRET, Method B electrophoretic mobility shift, Method C radiometric filter binding); format: biochemical; conditions: wild-type Btk; read-out: Btk-WT IC50
T2 construct: purified from insect cells as a full-length construct containing a N-terminal 6X-His tag; His6 (N); made in house; host or cells: insect cells (Method C)
T2 sequence (Q06187 whole entry): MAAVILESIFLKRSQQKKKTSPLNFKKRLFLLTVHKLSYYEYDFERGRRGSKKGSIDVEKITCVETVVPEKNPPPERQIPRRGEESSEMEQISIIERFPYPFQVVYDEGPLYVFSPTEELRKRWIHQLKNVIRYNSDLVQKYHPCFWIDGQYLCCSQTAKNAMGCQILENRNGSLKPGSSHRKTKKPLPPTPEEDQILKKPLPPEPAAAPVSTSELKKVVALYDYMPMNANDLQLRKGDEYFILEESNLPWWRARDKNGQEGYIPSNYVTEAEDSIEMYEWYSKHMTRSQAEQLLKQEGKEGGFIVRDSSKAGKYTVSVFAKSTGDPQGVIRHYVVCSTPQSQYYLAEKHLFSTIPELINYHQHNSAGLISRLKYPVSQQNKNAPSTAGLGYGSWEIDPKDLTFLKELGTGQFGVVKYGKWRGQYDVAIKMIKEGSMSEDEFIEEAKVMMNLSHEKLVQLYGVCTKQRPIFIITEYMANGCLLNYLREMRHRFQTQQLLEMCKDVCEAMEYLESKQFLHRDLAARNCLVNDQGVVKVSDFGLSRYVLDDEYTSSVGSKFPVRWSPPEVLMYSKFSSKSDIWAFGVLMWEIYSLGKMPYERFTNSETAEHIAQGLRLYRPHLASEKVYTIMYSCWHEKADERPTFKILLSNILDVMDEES
Procedure: Example 62a: Btk In Vitro Inhibitory Activity (Method A)
Btk kinase activity is determined using a time-resolved fluorescence resonance energy transfer (TR-FRET) methodology. Measurements are performed in a reaction volume of 50 μL using 96-well assay plates. […] The reaction is quenched by the addition of 1.2 equivalents of EDTA (relative to divalent cation) in 25 μL of 1× Lance buffer (Perkin-Elmer). Streptavidin-APC (Perkin-Elmer) and Eu-labeled p-Tyr100 antibody (Perkin-Elmer) in 1× Lance buffer are added in a 25 μL volume to give final concentrations of 100 nM and 2.5 nM, respectively, and the mixture is allowed to incubate for one hour. The TR-FRET signal is measured on a multimode plate reader with an excitation wavelength (λEx) of 330 nm and detection wavelengths (λEm) of 615 and 665 nm. Activity is determined by the ratio of the fluorescence at 665 nm to that at 615 nm. For each compound, enzyme activity is measured at various concentrations of compound. Negative control reactions are performed in the absence of inhibitor in replicates of six, and two no-enzyme controls are used to determine baseline fluorescence levels. Inhibition constants, Ki(app), were obtained using the program BatchKi (Kuzmic et al. (2000), Anal. Biochem. 286:45-50). IC50s are obtained according to the equation:
IC50={Ki(app)/(1+[ATP]/Km^ATP)}+[E]total/2;
For all kinases, [ATP]=Km^ATP, [Btk]total=0.5 nM and [Lck]total=6 nM.
Example 62b: Btk In Vitro Inhibitory Activity (Method B)
Kinase activity is measured in vitro using electrophoretic mobility shift assay. The kinase reactions are assembled in a total volume of 25 μL in 384 well plates. The reactions comprise: BTK enzyme (1 nM, N-terminal His6-tagged, recombinant, full-length, human BTK purified from baculovirus Sf21 insect cell system, 293HEK, or other suitable source), inhibitor, ATP, fluorescently labeled peptide substrate (1 μM, FAM-GEEPLYWSFPAKKK-NH2) in a reaction buffer composed of 100 mM HEPES, pH7.5, 5 mM MgCl2 1 mM DTT, 0.1% bovine serum albumin, 0.01% Triton X-100, and 1% DMSO. The reaction is incubated and is quenched by the addition of termination buffer (100 mM HEPES, pH 7.5, 0.01% Triton X-100, 30 mM EDTA). The terminated reactions are analyzed using a 12 channel LabChip® 3000 microfluidic detection instrument (Caliper Life Sciences). The enzymatic phosphorylation of the peptide results in a change in net charge, enabling electrophoretic separation of product from substrate peptide. As substrate and product peptides are separated, two peaks of fluorescence are observed. Change in the relative fluorescence intensity of the substrate and product peaks is the parameter measured, reflecting enzyme activity. In the presence of an inhibitor, the ratio between product and substrate is altered: the signal of the product decreases, while the signal of the substrate increases.
Activity in each sample is determined as the product to sum ratio (PSR):P/(S+P), where P is the peak height of the product peptide and S is the peak height of the substrate peptide. For each compound, enzyme activity is measured at various concentrations (12 concentrations of compound spaced by 3× dilution intervals). Negative control samples (0%—inhibition in the absence of inhibitor) and positive control samples (100%—inhibition, in the presence of 20 mM EDTA) are assembled in replicates of four and are used to calculate %—inhibition values for each inhibitor at each concentration. Percent inhibition (Pinh) is determined using following equation:
Pinh=(PSR0%−PSRinh)/(PSR0%−PSR100%)*100, where PSRinh is the product sum ratio in the presence of inhibitor, PSR0% is the average product sum ration in the absence of inhibitor and PSR100% is the average product sum ratio in 100%—inhibition control samples.
The IC50 values of inhibitors are determined by 4 parameter sigmoidal dose-response model fitting of the inhibition curves (Pinh versus inhibitor concentration) using XLfit 4 software. […]

| SMILES | TEC/Btk (TEC) | IC50 (Btk) [µM] | IC50 (TEC) [µM] |
| --- | --- | --- | --- |
| CC(C)(C)c1ccc(C(=O)NCc2ccc(-c3ccnc4[nH]nc(N[C@H]5CC[C@H](O)CC5)c34)cc2F)cc1 [Compound 12, 4-tert-butyl-N-{[2-fluoro-4-(3-{[(1r,4r)-4-hydroxycyclohexyl]amino}-1H-pyrazolo[3,4-b]pyridin-4-yl)phenyl]methyl}benzamide] | 11 | 0.879 |  |
| CC(C)(O)c1ccc(C(=O)NCc2ccc(-c3ccnc4[nH]nc(N[C@H]5CC[C@H](O)CC5)c34)cc2F)cc1 [Compound 26, N-{[2-fluoro-4-(3-{[(1r,4r)-4-hydroxycyclohexyl]amino}-1H-pyrazolo[3,4-b]pyridin-4-yl)phenyl]methyl}-4-(2-hydroxypropan-2-yl)benzamide] | >100 | 0.932 | > 10 |
| CC(C)(C)c1cc(C(=O)NCc2ccc(-c3ccnc4[nH]nc(N[C@H]5CC[C@H](O)CC5)c34)cc2F)no1 [Compound 27, 5-tert-butyl-N-{[2-fluoro-4-(3-{[(1r,4r)-4-hydroxycyclohexyl]amino}-1H-pyrazolo[3,4-b]pyridin-4-yl)phenyl]methyl}-1,2-oxazole-3-carboxamide] | 142 | 0.0442 | 6.26 |
| CC(C)(C)c1ccc2c(c1)CCN(Cc1ccc(-c3ccnc4[nH]nc(N[C@@H]5CCN(C=O)C5)c34)cc1F)C2=O [Compound 60, (3R)-3-[(4-{4-[(6-tert-butyl-1-oxo-1,2,3,4-tetrahydroisoquinolin-2-yl)methyl]-3-fluorophenyl}-1H-pyrazolo[3,4-b]pyridin-3-yl)amino]pyrrolidine-1-carbaldehyde] |  | 0.021 | 7.42 |
| CCc1nc(C(=O)NCc2ccc(-c3ccnc4[nH]nc(N[C@@H]5CCNC5)c34)cc2F)no1 [Example 54] |  | > 10 | > 10 |
| CC(C)(C)c1ccc(C(=O)NCc2ccc(-c3ccnc4[nH]nc(N[C@H]5CCN(C=O)C5)c34)cc2F)cc1 [Example 61, 4-tert-butyl-N-{[2-fluoro-4-(3-{[(3S)-1-formylpyrrolidin-3-yl]amino}-1H-pyrazolo[3,4-b]pyridin-4-yl)phenyl]methyl}benzamide] | 174 | 0.0341 | 5.95 |
| C[C@H](NC(=O)c1ccc(C(C)(C)C)cc1)c1ccc(-c2ccnc3[nH]nc(N[C@@H]4CCNC4)c23)cc1 [Example 91, 4-tert-butyl-N-[(1S)-1-[4-(3-{[(3R)-pyrrolidin-3-yl]amino}-1H-pyrazolo[3,4-b]pyridin-4-yl)phenyl]ethyl]benzamide] |  | > 10 | > 10 |
| C[C@H](NC(=O)c1noc(C(C)(C)C)n1)c1ccc(-c2ccnc3[nH]nc(N[C@@H]4CCN(C(=O)N(C)C)C4)c23)cc1F [Example 291, 5-tert-butyl-N-{(1S)-1-[4-(3-{[(3R)-1-(dimethylcarbamoyl)pyrroli-din-3-yl]amino}-1H-pyrazolo[3,4-b]pyridin-4-yl)-2-fluorophenyl]ethyl}-1,2,4-oxadiazole-3-carboxamide] |  | 0.0419 |  |
| CC1(C)Cc2cc3n(c2C1)CCN(c1nccc(-c2ccnc4[nH]nc(NC5CCNC5)c24)c1CO)C3=O (stereo not shown) [Example 297, 2-[3-(hydroxymethyl)-4-{3-[(pyrrolidin-3-yl)amino]-1H-pyrazolo[3,4-b]pyridin-4-yl}pyridin-2-yl]-7,7-dimethyl-3,4,7,8-tetrahydro-2H-cyclopenta[4,5]pyrrolo[1,2-a]pyrazin-1(6H)-one] |  | 0.323 |  |
| CN(C)C(=O)N1CC[C@@H](Nc2n[nH]c3nccc(-c4ccnc(N5CCn6c(cc7c6CC(C)(C)C7)C5=O)c4CO)c23)C1 [Example 299, (3R)-3-({4-[2-(7,7-dimethyl-1-oxo-1,3,4,6,7,8-hexahydro-2H-cyclopenta[4,5]pyrrolo[1,2-a]pyrazin-2-yl)-3-(hydroxymethyl)pyridin-4-yl]-1H-pyrazolo[3,4-b]pyridin-3-yl}amino)-N,N-dimethylpyrrolidine-1-carboxamide] |  | 0.175 |  |
| CC(C)Cc1cc(C(=O)NCc2ccc(-c3ccnc4[nH]nc(N[C@@H]5CCCN(C(=O)N(C)C)[C@@H]5C)c34)cc2F)no1 [Example 306, (2R,3R)-3-({4-[3-fluoro-4-({[5-(2-methylpropyl)-1,2-oxazole-3-carbonyl]amino}methyl)phenyl]-1H-pyrazolo[3,4-b]pyridin-3-yl}amino)-N,N,2-trimethylpiperidine-1-carboxamide] |  | 0.531 |  |
| C[C@H]1CC[C@@H](N)CN1c1n[nH]c2nccc(-c3ccc(CNC(=O)c4cc(C(C)(C)C)on4)c(F)c3)c12 [Example 322, N-[(4-{3-[(2S,5R)-5-amino-2-methylpiperidin-1-yl]-1H-pyrazolo[3,4-b]pyridin-4-yl}-2-fluorophenyl)methyl]-5-tert-butyl-1,2-oxazole-3-carboxamide] |  | 0.156 |  |
| CN(C)C(=O)N1CC[C@@H](Nc2n[nH]c3nccc(-c4ccc(CNC(=O)c5coc(C6CCC6)n5)c(F)c4)c23)C1 [Example 328, 2-cyclobutyl-N-{[4-(3-{[(3R)-1-(dimethylcarbamoyl)pyrroli-din-3-yl]amino}-1H-pyrazolo[3,4-b]pyridin-4-yl)-2-fluorophenyl]methyl}-1,3-oxazole-4-carboxamide] |  | 0.509 |  |
| CN1CCN(c2n[nH]c3nccc(-c4ccc(CNC(=O)c5nc(C(C)(C)C)no5)c(F)c4)c23)C(=O)C1=O [Example 381, 3-tert-butyl-N-({2-fluoro-4-[3-(4-methyl-2,3-dioxopiperazin-1-yl)-1H-pyrazolo[3,4-b]pyridin-4-yl]phenyl}methyl)-1,2,4-oxadiazole-5-carboxamide] |  | 0.183 |  |
| CN1C[C@@H](Nc2n[nH]c3nccc(-c4ccc(CNC(=O)c5nc(C(C)(C)C)no5)c(F)c4)c23)CC1=O [Example 392, 3-tert-butyl-N-{[2-fluoro-4-(3-{[(3S)-1-methyl-5-oxopyrrolidin-3-yl]amino}-1H-pyrazolo[3,4-b]pyridin-4-yl)phenyl]methyl}-1,2,4-oxadiazole-5-carboxamide] |  | 0.00564 |  |
